Data reported in patent US10646570B2, “Induced photodynamic therapy using nanoparticle scintillators as transducers” (UNIVERSITY OF GEORGIA RESEARCH FOUNDATION, INC., priority 2014, dated 2020).

Experiment: 1O2 production in solutions, SOSG indicator, X-ray irradiation
Conditions: either with or without X-ray
Method: 1 mL of 0.05 mg M-SAO@SiO2/mL was added in a quartz cuvette (equilibrated with air at room temperature) containing 1 μM of SOSG. For controls, SAO, MC540, and water were analyzed. The solutions were irradiated by X-ray (at an irradiance of 1 Sv/h for 20 min, with a 1-min intermission after each 5-min irradiation cycle. The fluorescence signals (ex/em: 504/525 nm) were measured on a Hitachi F-7000 fluorescence spectrophotometer.
There is a significant overlap between the XEOL of SAO and the excitation wavelength of MC540 (FIG. 9A). Therefore, the ability of M-SAO@SiO2 nanoparticles irradiated by X-ray to relay energy in the form of visible photons to MC540 and as a result, producing ^1O2 was investigated. A common ^1O2 indicator, singlet oxygen sensor green (SOSG, Invitrogen) was used to investigate this effect. SOSG is a fluorescent compound which undergoes a structural change in the presence of ^1O2. The process is accompanied by an increase of fluorescence (ex/em: 504/525 nm). Therefore, by measuring the fluorescence change, the ^1O2 generation in solutions or cells can be monitored. Using SOSG, ^1O2 generation with a M-SAO@SiO2 nanoparticle solution (50 μg/mL) under X-ray irradiation was studied (1 Sv/h, FIG. 9B). Compared to the background, the intensity of 525 nm fluorescence was increased by 8, 25, 35, and 45% after 5, 10, 15, and 20 min X-ray irradiation, respectively (FIG. 9B).

SMILES: CCCCN1C(=O)C(=C/C=C/C=C2\Oc3ccccc3N2CCCS(=O)(=O)[O-])C(=O)N(CCCC)C1=S.[Na+] [MC540, merocyanine 540]
- increase in fluorescence (1O2, SOSG): minimal increase in fluorescence
